How the values were obtained:
[1] = system: carrageenan-induced paw inflammation; assay: Rat carrageenan-induced paw inflammation (paw edema) assay; format: in vivo, Male Sprague Dawley rats; details: oral, one hour prior to carrageenan, paw weight difference four hours after carrageenan
Description: The in vivo efficacy if NSAID cochleates was tested in a rat carrageenan-induced paw inflammation assay.
Two types of ibuprofen-containing cochleates were prepared, crystal cochleates and geode cochleates. The cochleates were prepared with using soy phosphatidylserine as a negative phospholipid. To prepare the ibuprofen geode cochleate, the soy phosphatidylserine was combined with castor oil and ibuprofen and mixed to form a stable emulsion comprising a mixture of liposomes and lipid monolayers comprising the phosphatidylserine surrounding a hydrophobic domain (castor oil), with the ibuprofen dispersed within the castor oil. […] Crystal and geode cochleates containing 50, 10, 2, 0.4, or 0.1 mg/kg of ibuprofen were prepared. Male Sprague Dawley rats were treated orally (one hour prior to right hind footpad injection of carrageenan) with vehicle, a commercial preparation of ibuprofen or ibuprofen formulated in either crystal or geode cochleates and were evaluated for effects of treatment on inflammatory edema. Animals were sacrificed five hours after dosing with test articles (four hours after carrageenan injection). Efficacy evaluation was based on weight difference due to inflammation-induced swelling in injected (right) vs. uninjected (left) paws. In addition, gastric mucosa were evaluated for differences in incidence and severity of mucosal congestion and erosions.

gastric mucosa = assay: Evaluation of gastric mucosa for lesions/erosions in rats after oral dosing; format: in vivo, Male Sprague Dawley rats
Description: Male Sprague Dawley rats were treated orally (one hour prior to right hind footpad injection of carrageenan) with vehicle, a commercial preparation of ibuprofen or ibuprofen formulated in either crystal or geode cochleates and were evaluated for effects of treatment on inflammatory edema. Animals were sacrificed five hours after dosing with test articles (four hours after carrageenan injection). Efficacy evaluation was based on weight difference due to inflammation-induced swelling in injected (right) vs. uninjected (left) paws. In addition, gastric mucosa were evaluated for differences in incidence and severity of mucosal congestion and erosions.

[2] = Solubility of ibuprofen in oils; format: physicochemical
[3] = rats, ibuprofen at 50 mg/kg oral

CC(C)Cc1ccc(C(C)C(=O)O)cc1 (stereo not drawn) [Commercial ibuprofen, ibuprofen]
ED50 [1]: 30 mg/kg | rats with gastric lesions (incidence) (gastric mucosa; 10 mg/kg, oral): 1 of 10 | rats with gastric lesions (incidence) (gastric mucosa; 10 mg/kg, oral, listed as commercial preparation of ibuprofen): Some rats | number of gastric lesions and total stomach lesion length (in words) (gastric mucosa; 50 mg/kg, oral): significantly increased numbers of gastric lesions and increased total stomach lesion length | Average Size of Lesion (gastric mucosa; [3]): 7.2 ± 1.9 | Number of Lesions per Animal (gastric mucosa; [3]): 4.1 ± 0.8 | Number of Animals with Lesions (gastric mucosa; rats, ibuprofen at 50 mg/kg oral, five hours after dosing, groups of 10): 9 | rats with gastric lesions (incidence) (gastric mucosa; single-dose 50 mg/kg (highest dose), oral): 9 of 10 | solubility in castor oil compared with other oils [2]: substantially more soluble in castor oil than other oils
